# Source: patent US20260055102A1 (Redx Pharma Limited, priority 2022, published 2026)
# Experiments:
# [1] = biological target: Recombinant human DDR1 (aa440-876 containing a GST tag) (Homo sapiens (Human), UniProt Q08345); test: LanthaScreen Eu Kinase Binding Assay DDR1; conditions: Kinase Tracer 178 5 nM, at least two independent replicates; for IC50: read-out: DDR1 pIC50 (converted)
# Procedure, shortened: (§1)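 DDR1 (2.5 nM) or DDR2 (1.75 nM) was preincubated with compound 30 min at RT in 50 mM HEPES pH 7.3, 10 mM MgCl2, 1 mM EGTA, 0.01% Tween. Eu-anti-GST and Tracer 178 were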
# [2] = biological target: Recombinant human DDR2 (aa427-855 containing a GST tag) (Homo sapiens (Human), UniProt Q16832); test: LanthaScreen Eu Kinase Binding Assay DDR2; conditions: Kinase Tracer 178 10 nM, at least two independent replicates; for IC50: read-out: DDR2 pIC50 (converted)
# Recombinant human DDR2 (aa427-855 containing a GST tag), sequence (Q16832 427-855): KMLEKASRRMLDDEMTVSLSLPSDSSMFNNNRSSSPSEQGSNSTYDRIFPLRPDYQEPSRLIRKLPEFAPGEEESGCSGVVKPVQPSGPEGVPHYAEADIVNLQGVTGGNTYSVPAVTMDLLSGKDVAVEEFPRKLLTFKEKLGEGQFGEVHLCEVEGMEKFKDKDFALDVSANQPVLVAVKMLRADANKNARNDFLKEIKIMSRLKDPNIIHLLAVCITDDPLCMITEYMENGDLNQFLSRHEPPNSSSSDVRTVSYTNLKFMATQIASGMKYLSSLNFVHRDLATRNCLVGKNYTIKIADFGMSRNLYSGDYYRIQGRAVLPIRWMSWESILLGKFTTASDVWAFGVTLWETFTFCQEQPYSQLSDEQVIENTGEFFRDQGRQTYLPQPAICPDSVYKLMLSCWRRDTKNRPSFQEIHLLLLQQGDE
# Procedure, shortened: as §1
# Recombinant human DDR1 (aa440-876 containing a GST tag), sequence (Q08345 other isoform, or with tags, fused parts or gaps): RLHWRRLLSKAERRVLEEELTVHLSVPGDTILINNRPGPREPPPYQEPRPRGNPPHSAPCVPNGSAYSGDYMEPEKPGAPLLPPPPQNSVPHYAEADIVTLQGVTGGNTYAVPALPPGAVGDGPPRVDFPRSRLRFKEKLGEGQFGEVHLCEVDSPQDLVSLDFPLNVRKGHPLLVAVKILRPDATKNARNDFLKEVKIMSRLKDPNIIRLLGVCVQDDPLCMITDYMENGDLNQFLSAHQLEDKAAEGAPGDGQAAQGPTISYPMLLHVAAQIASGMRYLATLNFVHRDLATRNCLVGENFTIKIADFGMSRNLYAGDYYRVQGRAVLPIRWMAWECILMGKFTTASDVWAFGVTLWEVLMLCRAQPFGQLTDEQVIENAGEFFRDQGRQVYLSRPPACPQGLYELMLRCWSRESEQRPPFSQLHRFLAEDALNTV
SMILES,IC50 [1] [nM],DDR2 pIC50 [2],DDR1 pIC50 [1],IC50 [2] [nM]
"Cc1cccc2c1n(-c1cnc(-c3cncc4c3cnn4C)cn1)c(=O)n2CC(=O)N[C@H](C)C(F)(F)F [Example 48, 2-[4-methyl-3-[5-(1-methylpyrazolo[3,4-c]pyridin-4-yl)pyrazin-2-yl]-2-oxo-benzimidazol-1-yl]-N-[(1R)-2,2,2-trifluoro-1-methyl-ethyl]acetamide]",10 to 100,D (pIC50≤6),,
"Cc1cccc2c1n(-c1ccc(-c3cncc4c3cnn4C)cc1)c(=O)n2CC(=O)N1CCOC(C(F)(F)F)C1 (stereo not shown) [Example 9, 4-methyl-3-[4-(1-methylpyrazolo[3,4-c]pyridin-4-yl)phenyl]-1-[2-oxo-2-[2-(trifluoromethyl)morpholin-4-yl]ethyl]benzimidazol-2-one]",,,A (pIC50>8),10 to 100
"Cc1cccc2c1n(-c1ccc(-c3cncc4c3cnn4C)cc1)c(=O)n2CC(=O)N1CCC[C@H]1CF [Example 45, 1-[2-[(2S)-2-(fluoromethyl)pyrrolidin-1-yl]-2-oxo-ethyl]-4-methyl-3-[4-(1-methylpyrazolo[3,4-c]pyridin-4-yl)phenyl]benzimidazol-2-one]",,,A (pIC50>8),10 to 100
"Cn1ncc2c(-c3ccc(-n4c(=O)n(CC(=O)N5CCCC5C(F)(F)F)c5ccccc54)cc3)cncc21 (stereo not shown) [Example 18, 1-[4-(1-methylpyrazolo[3,4-c]pyridin-4-yl)phenyl]-3-[2-oxo-2-[2-(trifluoromethyl)pyrolidin-1-yl]ethyl]benzimidazol-2-one]",,,A (pIC50>8),10 to 100
"COc1cccc2c1n(-c1ccc(-c3cncc4c3cnn4C)cc1C)c(=O)n2CC(=O)NCC(F)(F)F [Example 81, 2-[4-methoxy-3-[2-methyl-4-(1-methylpyrazolo[3,4-c]pyridin-4-yl)phenyl]-2-oxo-benzimidazol-1-yl]-N-(2,2,2-trifluoroethyl)acetamide]",,D (pIC50≤6),D (pIC50≤6),
"Cn1ncc2c(-c3ccc(-n4c(=O)n(CC(=O)NCC(F)(F)F)c5ccccc54)cc3F)cncc21 [Example 4, 2-[3-[3-fluoro-4-(1-methylpyrazolo[3,4-c]pyridin-4-yl)phenyl]-2-oxobenzimidazol-1-yl]-N-(2,2,2-trifluoroethyl)acetamide]",10 to 100,D (pIC50≤6),,
"Cc1nc(-c2cncc3[nH]nc(C)c23)cnc1-n1c(=O)n(CC(=O)NCC(F)(F)F)c2cccc(C)c21 [Example 104, 2-[4-methyl-3-[3-methyl-5-(3-methyl-1H-pyrazolo[3,4-c]pyridin-4-yl)pyrazin-2-yl]-2-oxo-benzimidazol-1-yl]-N-(2,2,2-trifluoroethyl)acetamide]",,D (pIC50≤6),D (pIC50≤6),
"Cn1ncc2c(-c3ccc(-n4c(=O)n(CC(=O)NCC(F)(F)F)c5cccnc54)cc3)cncc21 [Example 76, 2-[3-[4-(1-methylpyrazolo[3,4-c]pyridin-4-yl)phenyl]-2-oxo-imidazo[4,5-b]pyridin-1-yl]-N-(2,2,2-trifluoroethyl)acetamide]",,D (pIC50≤6),D (pIC50≤6),
"Cc1cccc2c1n(-c1ccc(-c3cncc4[nH]ncc34)cn1)c(=O)n2CC(=O)NCC(F)(F)F [Example 72, 2-[4-methyl-2-oxo-3-[5-(1H-pyrazolo[3,4-c]pyridin-4-yl)-2-pyridyl]benzimidazol-1-yl]-N-(2,2,2-trifluoroethyl)acetamide]",,,A (pIC50>8),100 to 1000
"Cc1nc(-n2c(=O)n(CC(=O)N[C@@H](C)C(F)(F)F)c3cccc(C)c32)cnc1-c1cncc2c1cnn2C [Example 101, 2-[4-methyl-3-[6-methyl-5-(1-methylpyrazolo[3,4-c]pyridin-4-yl)pyrazin-2-yl]-2-oxo-benzimidazol-1-yl]-N-[(1S)-2,2,2-trifluoro-1-methyl-ethyl]acetamide]",100 to 1000,D (pIC50≤6),,
Cc1nc(-c2cncc3c2cnn3C)cnc1-n1c(=O)n(CC(=O)N[C@@H](C)C(F)(F)F)c2cccc(C)c21 [Example 115],10 to 100,,,10 to 100
"CN1CCN(C(=O)Cn2c(=O)n(-c3ccc(-c4cncc5c4cnn5C)cc3)c3ccccc32)CC1 [Example 21, 1-[2-(4-methylpiperazin-1-yl)-2-oxoethyl]-3-[4-(1-methylpyrazolo[3,4-c]pyridin-4-yl)phenyl]benzimidazol-2-one]",,D (pIC50≤6),D (pIC50≤6),
Cc1cc(-c2cncc3c2cnn3C)ncc1-n1c(=O)n(CC(=O)N[C@H](C)C(F)(F)F)c2cccc(C)c21 [Example 107],100 to 1000,D (pIC50≤6),,
"Cc1cc(-c2cncc3c2cnn3C)ccc1-n1c(=O)n(CC(=O)N2CCOC(C(F)(F)F)C2)c2ccccc21 (stereo not shown) [Example 40, 1-[2-methyl-4-(1-methylpyrazolo[3,4-c]pyridin-4-yl)phenyl]-3-[2-oxo-2-[2-(trifluoromethyl)morpholin-4-yl]ethyl]benzimidazol-2-one]",10 to 100,D (pIC50≤6),,
"Cc1cccc2c1n(-c1ccc(-c3cncc4c3cnn4C)cc1)c(=O)n2CC(=O)N1CCC[C@H]1C(F)F [Example 43, 1-[2-[(2S)-2-(difluoromethyl)pyrrolidin-1-yl]-2-oxo-ethyl]-4-methyl-3-[4-(1-methylpyrazolo[3,4-c]pyridin-4-yl)phenyl]benzimidazol-2-one]",,,A (pIC50>8),10 to 100
"CC(NC(=O)Cn1c(=O)n(-c2ccc(-c3cncc4c3cnn4C)cc2)c2ccccc21)C1CC1 (stereo not shown) [Example 19, N-(1-cyclopropylethyl)-2-[3-[4-(1-methylpyrazolo[3,4-c]pyridin-4-yl)phenyl]-2-oxobenzimidazol-1-yl]acetamide]",10 to 100,D (pIC50≤6),,
"Cc1cccc2c1n(-c1ccc(-c3cncc4c3cnn4C)cc1)c(=O)n2CC(=O)N1CCO[C@@H](C(F)(F)F)C1 [Example 10, 4-methyl-3-[4-(1-methypyrazolo[3,4-c]pyridin-4-yl)phenyl]-1-[2-oxo-2-[(2R)-2-(trifluoromethyl)morpholin-4-yl]ethyl]benzimidazol-2-one]",,,A (pIC50>8),10 to 100
Cc1cccc2c1n(-c1ccc(-c3cncc4c3cnn4C)cn1)c(=O)n2CC(=O)NCC(F)(F)F [Example 58],10 to 100,,,100 to 1000
"Cc1cccc2c1n(-c1ccc(-c3cncc4c3cnn4C)cc1)c(=O)n2CC(=O)NCC(F)(F)F [Example 6, 2-[4-methyl-3-[4-(1-methylpyrazolo[3,4-c]pyridin-4-yl)phenyl]-2-oxobenzimidazol-1-yl]-N-(2,2,2-trifluoroethyl)acetamide]",,,A (pIC50>8),10 to 100
"Cn1ncc2c(-c3ccc(-n4c(=O)n(CC(=O)NCC(F)(F)F)c5ccccc54)c(Cl)c3)cncc21 [Example 87, 2-[3-[2-chloro-4-(1-methylpyrazolo[3,4-c]pyridin-4-yl)phenyl]-2-oxo-benzimidazol-1-yl]-N-(2,2,2-trifluoroethyl)acetamide]",,D (pIC50≤6),A (pIC50>8),
